Experimental data taken from US20180000798A1, “USE OF ACLIDINIUM” (Almirall, S.A., priority 2012, published 2018).
Like-named read-outs stand apart in the source and are kept apart here.

Key:
[1] = Solubility of aclidinium bromide; assay type: physicochemical
From the text: Aclidinium bromide is a white powder with a molecular formula of C26H30NO4S2Br and a molecular mass of 564.56.

[2] = system: patients with moderate to severe COPD; assay: Phase III randomized, double-blind, placebo controlled crossover trial; physical activity measured with multisensor armband; assay type: in vivo; settings: week 3; for Δ Comparison versus placebo, change from baseline in daily active energy expenditure / Δ Comparison versus placebo, change from baseline in duration of at least moderate activity: 400 micrograms aclidinium bromide per inhalation twice-daily, p < 0.05
From the text: In a Phase III randomized, double-blind, placebo controlled, 2 period crossover trial, patients with moderate to severe COPD received a dose of aclidinium equivalent to a metered nominal dose of 400 micrograms of aclidinium bromide per inhalation twice-daily (in the morning, 9 am, and in the evening, […]) and placebo for two periods of 3 weeks, with a washout period of 2 weeks between treatment periods.
Patients were randomised to receive either a dose of aclidinium equivalent to a metered nominal dose of 400 micrograms of aclidinium bromide per inhalation twice-daily in the first period followed by placebo in the second period, or to receive placebo in the first period followed by aclidinium bromide 400 micrograms twice-daily in the second period. Both aclidinium bromide and placebo were administered with a Genuair® multidose dry powder inhaler.
Physical activity (as minutes of at least moderate activity per day and as average active energy expenditure expressed in Kcal) was measured in the last week of the treatment with aclidinium and placebo using a multisensor armband (SenseWear™ Pro Armband; BodyMedia, Pittsburgh, Pa., USA), was worn on the upper right over the triceps muscle, according to the method described in Watz B et al, Eur Respir J, 2009; 33: 262-272. The multisensory armband incorporates a biaxial accelerometer that records steps per day and physiological sensors of energy expenditure.
A valid period of measurement was defined as 5 days of measurement with the patients wearing the accelerometer at least 22 hours per day.
The Intention-to-Treat (ITT) population included 109 patients.

patients with COPD = settings: previous trials, cited from earlier work
[3] = metered nominal dose 400 micrograms aclidinium bromide per inhalation twice-daily, adjusted mean, n = 85

Row | SMILES | Solubility in ethanol ([1]; ethanol) | Solubility in methanol ([1]; methanol) | Solubility in water ([1]; water) | Δ Comparison versus placebo, change from baseline in daily active energy expenditure [2] | Δ Comparison versus placebo, change from baseline in duration of at least moderate activity [2] | Δ Comparison versus placebo, change from baseline in daily active energy expenditure ([2]; listed as aclidinium bromide) | Δ Comparison versus placebo, change from baseline in duration of at least moderate activity ([2]; listed as aclidinium bromide) | Change from baseline in daily active energy expenditure [2, 3] | Change from baseline in duration of at least moderate activity [2, 3] | Improvement in physical activity versus placebo (patients with COPD; listed as tiotroplum) | Improvement in physical activity versus placebo (patients with COPD)
1 | O=C(O[C@H]1C[N+]2(CCCOc3ccccc3)CCC1CC2)C(O)(c1cccs1)c1cccs1 [Aclidinium, 3(R)-(2-hydroxy-2,2-dithien-2-ylacetoxy)-1-(3-phenoxypropyl)-1-azoniabicyclo[2.2.2] octane] | very slightly soluble | sparingly soluble | very slightly soluble | 55 (p < 0.05) Kcal | 10 (p < 0.05) minutes | 55 kcal | 10 min | 21.9 kcal | 4.2 min |  | 
2 | C[N+]1(C)[C@@H]2C[C@@H](OC(=O)C(O)(c3cccs3)c3cccs3)C[C@H]1[C@@H]1O[C@@H]12 [tiotropium] |  |  |  |  |  |  |  |  |  | not observed | not statistically demonstrated improvements in physical activity
